The target of series [1] is T1, Tyrosine-protein kinase JAK3 (Homo sapiens, UniProt P52333).
T1 sequence (P52333 whole entry): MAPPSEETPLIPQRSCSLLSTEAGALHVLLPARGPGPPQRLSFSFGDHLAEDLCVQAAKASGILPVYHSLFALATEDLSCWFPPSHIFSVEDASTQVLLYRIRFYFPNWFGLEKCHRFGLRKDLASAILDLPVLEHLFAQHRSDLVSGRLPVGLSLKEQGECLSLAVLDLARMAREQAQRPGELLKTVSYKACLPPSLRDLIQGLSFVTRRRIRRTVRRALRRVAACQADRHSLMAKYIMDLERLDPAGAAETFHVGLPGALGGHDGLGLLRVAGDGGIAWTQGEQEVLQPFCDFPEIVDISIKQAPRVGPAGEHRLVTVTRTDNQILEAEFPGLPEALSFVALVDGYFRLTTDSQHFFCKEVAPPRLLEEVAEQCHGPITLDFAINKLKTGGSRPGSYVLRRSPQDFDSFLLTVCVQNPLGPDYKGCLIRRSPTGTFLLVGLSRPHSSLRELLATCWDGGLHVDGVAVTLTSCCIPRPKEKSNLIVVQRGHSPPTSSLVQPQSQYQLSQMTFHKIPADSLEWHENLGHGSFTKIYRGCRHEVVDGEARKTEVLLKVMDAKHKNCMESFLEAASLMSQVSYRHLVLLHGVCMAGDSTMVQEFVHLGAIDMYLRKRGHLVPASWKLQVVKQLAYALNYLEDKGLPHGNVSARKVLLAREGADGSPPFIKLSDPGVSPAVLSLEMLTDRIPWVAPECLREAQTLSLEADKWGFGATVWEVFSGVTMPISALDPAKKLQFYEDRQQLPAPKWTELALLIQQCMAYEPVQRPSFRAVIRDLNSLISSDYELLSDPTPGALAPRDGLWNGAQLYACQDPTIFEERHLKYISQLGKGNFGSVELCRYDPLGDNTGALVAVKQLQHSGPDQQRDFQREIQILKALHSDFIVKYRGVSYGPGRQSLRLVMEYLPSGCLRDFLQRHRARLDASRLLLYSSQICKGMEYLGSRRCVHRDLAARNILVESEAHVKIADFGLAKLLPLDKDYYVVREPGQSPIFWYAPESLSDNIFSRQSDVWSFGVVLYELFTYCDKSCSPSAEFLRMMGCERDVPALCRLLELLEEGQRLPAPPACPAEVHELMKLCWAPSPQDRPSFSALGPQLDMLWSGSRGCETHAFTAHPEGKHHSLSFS
The format is cell-based, BaF3.

For series [2], the target named is T2, Non-receptor tyrosine-protein kinase TYK2 (Homo sapiens, UniProt P29597). The format is cell-based, BaF3.
T2 sequence (P29597 whole entry): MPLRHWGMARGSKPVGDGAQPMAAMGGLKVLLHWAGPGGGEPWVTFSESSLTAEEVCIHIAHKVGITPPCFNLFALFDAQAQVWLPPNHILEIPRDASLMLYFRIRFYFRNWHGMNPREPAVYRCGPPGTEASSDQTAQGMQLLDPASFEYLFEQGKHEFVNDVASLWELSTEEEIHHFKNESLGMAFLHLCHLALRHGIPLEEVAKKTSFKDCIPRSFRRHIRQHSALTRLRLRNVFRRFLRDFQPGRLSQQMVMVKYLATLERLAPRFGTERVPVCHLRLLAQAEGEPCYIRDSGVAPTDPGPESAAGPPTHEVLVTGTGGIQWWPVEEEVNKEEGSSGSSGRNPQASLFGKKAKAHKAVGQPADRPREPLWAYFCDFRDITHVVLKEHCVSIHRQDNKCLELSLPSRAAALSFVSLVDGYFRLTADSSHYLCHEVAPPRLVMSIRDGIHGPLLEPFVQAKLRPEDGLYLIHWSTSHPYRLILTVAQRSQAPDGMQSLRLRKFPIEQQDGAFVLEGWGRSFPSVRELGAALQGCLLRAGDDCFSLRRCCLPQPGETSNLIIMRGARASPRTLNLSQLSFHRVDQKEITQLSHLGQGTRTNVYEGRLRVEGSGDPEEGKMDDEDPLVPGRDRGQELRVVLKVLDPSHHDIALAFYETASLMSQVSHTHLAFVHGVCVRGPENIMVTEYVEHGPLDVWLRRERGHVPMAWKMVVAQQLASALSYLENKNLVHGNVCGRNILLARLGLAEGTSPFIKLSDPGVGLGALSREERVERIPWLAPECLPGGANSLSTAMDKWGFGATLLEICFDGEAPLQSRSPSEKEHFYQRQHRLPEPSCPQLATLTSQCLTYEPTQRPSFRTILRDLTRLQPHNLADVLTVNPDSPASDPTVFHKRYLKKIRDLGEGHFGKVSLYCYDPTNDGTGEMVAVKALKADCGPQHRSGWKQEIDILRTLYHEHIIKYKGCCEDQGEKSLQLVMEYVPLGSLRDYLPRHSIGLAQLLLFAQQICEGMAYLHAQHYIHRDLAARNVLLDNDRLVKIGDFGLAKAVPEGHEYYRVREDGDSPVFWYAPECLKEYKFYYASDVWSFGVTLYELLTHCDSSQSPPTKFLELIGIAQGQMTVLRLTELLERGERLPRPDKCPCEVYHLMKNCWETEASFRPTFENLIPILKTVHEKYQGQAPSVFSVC
Series [3] has as its target T3, JAK3/JAK1 (Homo sapiens, UniProt P23458+P52333). The format is cell-based, Blood.
Series [4] deals with T4, Tyrosine-protein kinase JAK1 (Homo sapiens, UniProt P23458). The format is cell-based, BaF3.
T4 sequence (P23458 whole entry): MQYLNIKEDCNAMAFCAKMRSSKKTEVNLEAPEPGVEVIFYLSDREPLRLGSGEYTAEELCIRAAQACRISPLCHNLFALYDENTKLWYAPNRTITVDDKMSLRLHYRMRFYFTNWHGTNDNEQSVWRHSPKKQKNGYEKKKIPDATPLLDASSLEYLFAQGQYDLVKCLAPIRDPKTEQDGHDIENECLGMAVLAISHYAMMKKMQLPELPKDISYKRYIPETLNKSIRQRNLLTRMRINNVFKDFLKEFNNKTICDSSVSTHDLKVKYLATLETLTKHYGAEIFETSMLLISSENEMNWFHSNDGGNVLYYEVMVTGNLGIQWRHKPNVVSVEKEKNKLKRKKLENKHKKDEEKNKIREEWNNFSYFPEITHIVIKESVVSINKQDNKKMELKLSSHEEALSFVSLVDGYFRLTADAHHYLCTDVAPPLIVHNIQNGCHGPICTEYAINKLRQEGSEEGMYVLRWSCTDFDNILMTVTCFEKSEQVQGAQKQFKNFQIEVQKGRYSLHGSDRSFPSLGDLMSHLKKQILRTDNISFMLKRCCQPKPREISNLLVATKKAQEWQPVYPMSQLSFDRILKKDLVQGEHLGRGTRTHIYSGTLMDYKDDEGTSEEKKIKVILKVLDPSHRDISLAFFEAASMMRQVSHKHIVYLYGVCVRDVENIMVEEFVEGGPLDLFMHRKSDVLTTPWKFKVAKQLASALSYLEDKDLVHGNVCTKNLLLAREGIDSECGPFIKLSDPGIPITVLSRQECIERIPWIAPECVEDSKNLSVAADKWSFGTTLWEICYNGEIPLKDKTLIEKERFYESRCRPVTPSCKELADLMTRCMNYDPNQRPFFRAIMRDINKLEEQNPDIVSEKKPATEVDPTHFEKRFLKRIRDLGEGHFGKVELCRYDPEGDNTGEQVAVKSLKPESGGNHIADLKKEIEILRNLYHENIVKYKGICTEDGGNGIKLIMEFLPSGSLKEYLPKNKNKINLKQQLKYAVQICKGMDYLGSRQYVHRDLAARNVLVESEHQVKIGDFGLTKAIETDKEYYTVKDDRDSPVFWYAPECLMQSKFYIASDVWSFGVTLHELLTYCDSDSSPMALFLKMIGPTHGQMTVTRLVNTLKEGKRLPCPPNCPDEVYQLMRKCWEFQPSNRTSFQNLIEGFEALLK
The target in series [5] is T3, JAK3/JAK1. The format is cell-based.
Series [6] concerns the target T1, Tyrosine-protein kinase JAK3. The format is cell-based, Sf9.
In series [7] the target is T2, Non-receptor tyrosine-protein kinase TYK2. The format is cell-based, Sf9.
The target in series [8] is T4, Tyrosine-protein kinase JAK1. The format is cell-based, Sf9.
The nature of series [9]: in vitro. The settings on record: human, plasma.
Description: Fraction unbound in human plasma by equilibrium dialysis

T3 sequence (P23458 whole entry, one chain of several): as the sequence (P23458 whole entry) above

As a reminder, the IC50 is the concentration needed to halve the response being measured. Low values mean higher potency, high ones lower potency. As for `NC(=O)c1cnc(N)c2cc(-c3ccc(N4CCOCC4)cc3)sc12`, the IC50 is above 25000 nM in series [1]; above 25000 nM in [2]; above 25000 nM in [3]; 748 nM in series [4]; 548 nM in [5]; 18 nM in series [6]. For the same molecule, the IC50 in series [7] was 66 nM; in series [8], 39 nM.

In the case of `CNC(=O)c1cnc(N)c2cc(-c3ccc(N4CCOCC4)cc3)sc12`, the concentration for half-maximal inhibition (IC50) is above 25000 nM in [1]; above 25000 nM in series [2]; 1810 nM in series [4]; 1340 nM in series [6]; 1330 nM in series [7]; 211 nM in [8].

Take `CCNC(=O)c1cnc(N)c2cc(-c3ccc(N4CCOCC4)cc3)sc12`: the IC50 in [6] came out at 967 nM; in series [7], 1070 nM; in series [8] it was 133 nM.

`Nc1ncc(C(=O)Nc2ccccc2)c2sc(-c3ccc(N4CCOCC4)cc3)cc12`: the concentration for half-maximal inhibition (IC50) in [6] is 2870 nM; in [7], 1990 nM; in series [8], 406 nM.

As to `Nc1ncc(C(=O)NCc2ccccc2)c2sc(-c3ccc(N4CCOCC4)cc3)cc12`, the IC50 is above 125000 nM in series [6], 2600 nM in series [7] and 307 nM in series [8].

For the molecule `CC(C)(C)NC(=O)c1cnc(N)c2cc(-c3ccc(N4CCOCC4)cc3)sc12`, the IC50 amounted to 10300 nM in series [6], 6980 nM in [7] and 8820 nM in series [8].

As to `CN(C)C(=O)c1cnc(N)c2cc(-c3ccc(N4CCOCC4)cc3)sc12`, the IC50 in series [6] was found to be 1660 nM; in series [7] it was 5150 nM; in [8] it was 3100 nM.

In the case of `CNC(=O)c1cnc(N)c2cc(-c3ccccc3)sc12`, the IC50 in series [1] was above 25000 nM; in series [2], above 25000 nM; in [6], 767 nM; in series [7], 937 nM; in series [8], 290 nM.

`CNC(=O)c1cnc(N)c2cc(-c3ccc(C)cc3)sc12`: the IC50 in [1] is above 25000 nM; in series [2] it was above 25000 nM; in series [4], above 25000 nM; in series [6], 545 nM; in series [7], 888 nM; in [8], 377 nM.

With `CNC(=O)c1cnc(N)c2cc(-c3ccc(C(C)(C)C)cc3)sc12`, the IC50 was above 25000 nM in series [1]; above 25000 nM in series [2]; 188 nM in [6]; 202 nM in series [7]; 39 nM in series [8].

In the case of `CNC(=O)c1cnc(N)c2cc(-c3ccc(OC(F)(F)F)cc3)sc12`, the IC50 in [1] is above 25000 nM; in [2], above 25000 nM; in series [4] it was 6850 nM; in series [6] it was 365 nM; in series [7] it was 208 nM; in series [8] it was 70 nM.

For the molecule `CNC(=O)c1cnc(N)c2cc(-c3ccc(C(C)(C)C#N)cc3)sc12`, the 50% inhibitory concentration (IC50) in [1] was above 25000 nM; in series [2], above 25000 nM; in series [4], 1160 nM; in series [6] it was 118 nM; in series [7] it was 146 nM; in [8], 36 nM.

In general, fraction unbound refers to free concentration divided by total concentration. A low value points to extensive binding. For `CNC(=O)c1cnc(N)c2cc(-c3ccc(S(=O)(=O)NC(C)(C)C)cc3)sc12`, the IC50 in series [1] is above 25000 nM; in [2], above 25000 nM; in series [3] it was above 25000 nM; in series [4], 1090 nM; in series [5], 625 nM; in series [6], 307 nM. For the same molecule, the IC50 turned out to be 266 nM in series [7] and 30 nM in series [8]. Further, the fraction unbound in [9] came to 0.012.

With `CC(C)(C)NS(=O)(=O)c1ccc(-c2cc3c(N)ncc(C(=O)NCCO)c3s2)cc1`, the 50% inhibitory concentration (IC50) in series [1] was above 25000 nM; in series [2] it was above 25000 nM; in [6], 434 nM; in [7] it was 932 nM; in series [8], 78 nM.

Consider `COCCNC(=O)c1cnc(N)c2cc(-c3ccc(S(=O)(=O)NC(C)(C)C)cc3)sc12`, for which the IC50 in series [1] was above 25000 nM; in [2], above 25000 nM; in [3], above 25000 nM; in series [4], 6610 nM; in series [5], 4450 nM; in series [6], 1280 nM. In addition, the values for the IC50 in [7] and in series [8] were 1480 nM and 129 nM, respectively. Also, the fraction unbound in series [9] turned out to be 0.023.

Regarding `CN(C)CCNC(=O)c1cnc(N)c2cc(-c3ccc(S(=O)(=O)NC(C)(C)C)cc3)sc12`, the IC50 is above 25000 nM in [1]; above 25000 nM in series [2]; above 25000 nM in series [3]; above 25000 nM in [4]; above 25000 nM in series [5]; 3330 nM in [6]. The IC50 turned out to be 4100 nM in series [7] and 708 nM in [8]. The molecule also registered a fraction unbound in series [9] of 0.064.

On to `CC(C)(C)NS(=O)(=O)c1ccc(-c2cc3c(N)ncc(C(=O)NCCN4CCCCC4)c3s2)cc1`, for which the IC50 in series [1] was above 25000 nM; in series [2] it was above 25000 nM; in series [4], above 25000 nM; in [6] it was 2380 nM; in [7], 2670 nM; in series [8] it was 654 nM.

`CC(C)(C)NS(=O)(=O)c1ccc(-c2cc3c(N)ncc(C(=O)NCCN4CCOCC4)c3s2)cc1`: the IC50 in series [1] was above 25000 nM; in series [2] it was above 25000 nM; in series [3], above 25000 nM; in [5], 7300 nM; in [6] it was 963 nM; in series [7] it was 757 nM. In [8], this molecule returned an IC50 of 177 nM. Besides, the fraction unbound in series [9] worked out at 0.101.

For `CC(C)(C)NS(=O)(=O)c1ccc(-c2cc3c(N)ncc(C(=O)NCCCN4CCOCC4)c3s2)cc1`, the IC50 in series [1] was above 25000 nM; in series [2] it was above 25000 nM; in series [4], 12600 nM; in series [6] it was 645 nM; in series [7], 1550 nM; in series [8], 206 nM.

For the origin of these results see ChEMBL document CHEMBL1938231 (J Med Chem, 2011).
